Measurements reported in PubChem BioAssay (NCI).
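96-well plates; 48 h exposure; 5 concentrations. Endpoints by linear interpolation between flanking doses. Not reached: highest tested concentration assigned. TGI denotes the concentration required for complete inhibition of growth.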

Assays:
Assay in all cases: NCI-60 cell line screen, 48 h
SNB-75 CNS = test system: SNB-75 CNS
K-562 leukemia = test system: K-562 leukemia
SF-268 CNS = test system: SF-268 CNS
IGROV1 ovarian = test system: IGROV1 ovarian
RPMI-8226 leukemia = test system: RPMI-8226 leukemia
HL-60(TB) leukemia = test system: HL-60(TB) leukemia
SK-MEL-5 melanoma = test system: SK-MEL-5 melanoma
KM20L2 colon = test system: KM20L2 colon
OVCAR-8 ovarian = test system: OVCAR-8 ovarian
U251 CNS = test system: U251 CNS
OVCAR-3 ovarian = test system: OVCAR-3 ovarian
A549 NSCLC = test system: A549 NSCLC
LOX IMVI melanoma = test system: LOX IMVI melanoma
ACHN renal = test system: ACHN renal
COLO 205 colon = test system: COLO 205 colon
MALME-3M melanoma = test system: MALME-3M melanoma
SK-MEL-2 melanoma = test system: SK-MEL-2 melanoma
SR leukemia = test system: SR leukemia
MDA-N = test system: MDA-N
MDA-MB-435 = test system: MDA-MB-435

Row | Structure (SMILES) | TGI (SNB-75 CNS) [µM] | TGI (K-562 leukemia) [µM] | TGI (SF-268 CNS) [µM] | TGI (IGROV1 ovarian) [µM] | TGI (RPMI-8226 leukemia) [µM] | TGI (HL-60(TB) leukemia) [µM] | TGI (SK-MEL-5 melanoma) [µM] | TGI (KM20L2 colon) [µM] | TGI (OVCAR-8 ovarian) [µM] | TGI (U251 CNS) [µM] | TGI (OVCAR-3 ovarian) [µM] | TGI (A549 NSCLC) [µM] | TGI (LOX IMVI melanoma) [µM] | TGI (ACHN renal) [µM] | TGI (COLO 205 colon) [µM] | TGI (MALME-3M melanoma) [µM] | TGI (SK-MEL-2 melanoma) [µM] | TGI (SR leukemia) [µM] | TGI (MDA-N) [µM] | TGI (MDA-MB-435) [µM]
1 | COc1cc(/C=C/C(=O)c2sc(-n3nc(-c4ccccc4)cc3-c3ccccc3)nc2C)ccc1O | > 100 | > 100 | > 100 | > 100 | > 100 | > 100 | > 100 | > 100 | > 100 | > 100 | > 100 | > 100 | > 100 | > 100 | > 100 | > 100 | > 100 | – | – | –
2 | CC(=O)OCC(=O)[C@@]1(O)CC[C@H]2[C@@H]3CCC4=CC(=O)[C@H](C)C[C@]4(C)[C@H]3[C@@H](O)C[C@@]21C | > 100 | > 100 | > 100 | > 100 | > 100 | > 100 | > 100 | > 100 | > 100 | > 100 | > 100 | > 100 | > 100 | > 100 | > 100 | > 100 | > 100 | > 100 | – | –
3 | c1ccc(Nc2nnc(CSc3nc(-c4ccccc4)c(-c4ccccc4)[nH]3)s2)cc1 | 85.6 | – | 46.2 | 42.2 | 50.4 | 31.4 | 28.5 | 48.5 | 53.8 | 28.1 | 26.7 | 73.3 | 31.8 | > 100 | 25.6 | 34.6 | 38.4 | 51.1 | – | –
4 | CC(C)=CCCC1(C)C=Cc2c(c(C)cc3c2[nH]c2cc(O)ccc23)O1 (stereo unspecified) | – | > 25 | > 25 | > 25 | > 25 | > 25 | > 25 | > 25 | > 25 | > 25 | > 25 | > 25 | > 25 | > 25 | > 25 | > 25 | > 25 | > 25 | – | –
5 | CC1CC2OC(=O)C3CC(O)CC(=C23)[C@@]12C[C@@H](c1ccoc1)OC2=O (stereo partly specified) | > 100 | > 100 | > 100 | > 100 | > 100 | > 100 | > 100 | > 100 | > 100 | > 100 | > 100 | > 100 | > 100 | > 100 | > 100 | > 100 | > 100 | > 100 | – | –
6 | CCCCCC(=O)Nc1n[nH]nc1C(N)=O | > 100 | > 100 | > 100 | > 100 | > 100 | > 100 | > 100 | – | > 100 | > 100 | > 100 | > 100 | > 100 | > 100 | > 100 | > 100 | > 100 | > 100 | > 100 | > 100
7 | COc1ccc(C2c3cc4c(cc3C(O)C3CCC(=O)N23)OCO4)cc1 (stereo unspecified) | > 100 | > 100 | > 100 | > 100 | > 100 | > 100 | > 100 | – | > 100 | > 100 | > 100 | > 100 | > 100 | > 100 | > 100 | > 100 | > 100 | > 100 | > 100 | > 100
8 | Cc1nc2sc(CCl)nn2c(=O)c1Cl | 24.7 | 28.1 | 33.4 | 34.8 | 24.4 | 29.8 | 18.7 | – | 31.4 | 19.2 | 29.5 | 29.6 | 7.34 | 29.3 | 32.2 | 24.9 | 27.7 | 26.2 | 24.8 | 18.3
9 | NS(=O)(=O)c1cc2c(cc1Cl)NC(C(=O)c1cc(=O)c3ccc(O)cc3o1)=NS2(=O)=O | > 100 | > 100 | > 100 | > 100 | > 100 | > 100 | > 100 | > 100 | > 100 | > 100 | > 100 | > 100 | > 100 | > 100 | > 100 | > 100 | > 100 | > 100 | – | –
10 | CCOC(=O)C(c1c[nH]c2ccccc12)(c1c[nH]c2ccccc12)c1c[nH]c2ccccc12 | 88.5 | 46.8 | > 100 | > 100 | 45.7 | 43.9 | > 100 | – | > 100 | > 100 | > 100 | > 100 | > 100 | > 100 | 39.2 | 78.1 | 59.7 | 80 | > 100 | 76.7
11 | Fc1cc(C2=C[C@H](c3ccc(Cl)cc3)NC(=S)N2)c(Cl)cc1Cl | > 100 | > 100 | > 100 | > 100 | 56.2 | 65.7 | 36.1 | – | > 100 | > 100 | > 100 | > 100 | > 100 | > 100 | > 100 | > 100 | 96.2 | > 100 | > 100 | > 100
12 | C=CCONC(=O)c1ccc(Cl)cc1 | > 100 | > 100 | > 100 | > 100 | > 100 | > 100 | > 100 | > 100 | > 100 | > 100 | – | > 100 | > 100 | > 100 | > 100 | > 100 | > 100 | > 100 | – | –
13 | COc1ccc(/C=C2\OC(=O)C(Cl)=C2c2ccc(OC)cc2)cc1 | > 100 | > 100 | > 100 | > 100 | > 100 | > 100 | > 100 | – | > 100 | > 100 | > 100 | > 100 | > 100 | > 100 | > 100 | > 100 | > 100 | > 100 | > 100 | > 100
